Read-outs that look alike come from different tables or passages of the source.

In experiment [1] the target is T1, DP receptor (Homo sapiens, UniProt Q13258).
T1 construct: endogenous in cells; host or cells: washed platelets from peripheral blood of a healthy volunteer
T1 sequence (Q13258 1-359): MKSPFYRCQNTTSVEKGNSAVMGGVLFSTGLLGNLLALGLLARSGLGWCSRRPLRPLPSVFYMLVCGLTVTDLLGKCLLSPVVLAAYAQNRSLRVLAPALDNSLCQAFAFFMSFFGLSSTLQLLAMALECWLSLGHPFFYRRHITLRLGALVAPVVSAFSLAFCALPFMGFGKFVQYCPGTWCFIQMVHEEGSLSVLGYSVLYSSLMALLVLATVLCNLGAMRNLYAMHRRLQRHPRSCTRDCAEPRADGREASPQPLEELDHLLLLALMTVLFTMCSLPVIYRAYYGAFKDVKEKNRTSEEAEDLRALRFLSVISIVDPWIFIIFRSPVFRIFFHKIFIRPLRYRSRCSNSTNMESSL
Nature of the experiment: cAMP assay with washed platelet (DP inhibitory activity in vitro). The experiment is classed as cell-based. The conditions noted are these: washed human platelets, 100 nM PGD2, cAMP by HTRF. How it is done:
1) Preparation of Platelet and a Method of cAMP Assay
30 mL of peripheral blood was collected from a healthy volunteer using a syringe containing one ninth amount of 3.8% sodium citrate. After being centrifuged at 180 g for 10 minutes at room temperature, a supernatant was collected and used as Platelet Rich Plasma (PRP). The resulting PRP was washed with wash buffer and centrifuged three times (Washed Platelet: WP) and platelets were counted by a microcell counter. WP was added to a plate in amount of 1.5×10^8/assay and the plate was treated with 3-isobutyl-1-methylxanthin (IBMX; 0.5 mM) for 5 minutes. A reaction was initiated by adding 100 nM of PGD2 5 min after an addition of a test compound. The reaction was terminated with an addition of 1N hydrochloric acid after 2 minutes and the cells were destructed using 12% triton X-100. An amount of cAMP in the supernatant was assayed by Homogeneous Trangient Fluorescence (HTRF)
A general note: Changes in cAMP serve as a functional read-out for many G protein-coupled receptors.

Experiment [2] deals with T1, DP receptor. Description: Receptor binding assay, [3H]-PGD2, platelet membrane. The conditions noted are these: [3H]-PGD2, human platelet membrane. As to the method:
2) Receptor Binding Assay
A prepared WP was homogenated and a membrane fraction was collected with high-speed centrifugation. A compound of the present invention or a reference compound A (No. IC-73 in WO 2003/097598) was added to the plate and [^3H]-PGD2 was also added. A platelet membrane, a protein concentration is 2 mg/mL, was added and mixed in the plate, and placed on ice for 2 hours. The reaction solution was transferred to a low protein-adsorptive filter and washed with a wash solution eight times using a cell harvester. After the final washing, water was removed sufficiently, and scintillator was added. DP inhibitory activity was investigated by measuring [^3H] by using Micro Beta.

Where [3] appears, read: read-out: IC50 (50% DP-inhibitory concentration in the cAMP assay).

With `Cc1nnc(-c2ccc(N3CCN(S(=O)(=O)c4ccc(OC(C)C)cc4)CC3)cc2OCC(=O)O)s1` [II-75], the IC50 on DP receptor [1] (setting [3]) is 580 nM. Moreover, the affinity at DP receptor [2] corresponds to a Ki of 580 nM.

With `CC(C)Oc1ccc(S(=O)(=O)N2CCN(c3ccc(C(N)=O)c(OCC(=O)O)c3)CC2)cc1` [II-81], the IC50 on DP receptor [1] (setting [3]) came out at 1800 nM. Affinity on DP receptor [2] was put at a Ki of 2600 nM.

Turning to `CNC(=O)c1ccc(N2CCN(S(=O)(=O)c3ccc(OC(C)C)cc3)CC2)cc1OCC(=O)O` [II-82], at DP receptor [1] (setting [3]), the IC50 turned out to be 1100 nM. Moreover, the inhibition constant (Ki) (usually the dissociation constant of the complex between target and ligand, obtained from inhibition or displacement) on DP receptor [2] was determined as 5000 nM.

In the case of `CCCNC(=O)c1ccc(N2CCN(S(=O)(=O)c3ccc(OC(C)C)cc3)CC2)cc1OCC(=O)O` [II-83], the IC50 at DP receptor [1] (setting [3]) amounted to 2000 nM. At DP receptor [2], the affinity corresponds to a Ki of 20000 nM.

The compound `CC(C)Oc1ccc(S(=O)(=O)N2CCN(c3ccc(-c4cnco4)c(OCC(=O)O)c3)CC2)cn1` [II-85] returned an IC50 on DP receptor [1] of 510 nM. In addition, the Ki at DP receptor [2] is 1700 nM.

With `CC(C)Oc1ccc(S(=O)(=O)N2CCN(c3ccc(-c4nncs4)c(OCC(=O)O)c3)CC2)cc1` [II-88], at DP receptor [1] (setting [3]), the IC50 was found to be 230 nM. Also, on DP receptor [2], the affinity corresponds to a Ki of 1500 nM.

For the compound `CC(C)Oc1ccc(S(=O)(=O)N2CCN(c3ccc(C(=O)NC4CC4)c(OCC(=O)O)c3)CC2)cc1` [II-89], on DP receptor [1] (setting [3]), the IC50 turned out to be 2100 nM. Moreover, the Ki on DP receptor [2] was 20000 nM.

`CC(C)Oc1ccc(S(=O)(=O)N2CCN(c3ccc(-c4ncco4)c(OCC(=O)O)c3)CC2)cn1` [II-94]: at DP receptor [1] (setting [3]), the IC50 is 2000 nM. The compound also registered a Ki on DP receptor [2] of 1700 nM.

In the case of `CC(C)Oc1ccc(S(=O)(=O)N2CCN(c3ccc(-n4cccn4)c(OCC(=O)O)c3)CC2)cc1` [II-95], the IC50 on DP receptor [1] (setting [3]) was determined as 2400 nM. In addition, on DP receptor [2], the Ki was 4700 nM.

Consider `CC(C)Oc1ccc(S(=O)(=O)N2CCN(c3ccc(C(=O)NCc4cccs4)c(OCC(=O)O)c3)CC2)cc1` [II-99], for which the IC50 at DP receptor [1] (setting [3]) was found to be 590 nM. The Ki at DP receptor [2] was 11000 nM.

Regarding `CC(C)Oc1ccc(S(=O)(=O)N2CCN(c3ccc(C(=O)NCc4ccccn4)c(OCC(=O)O)c3)CC2)cc1` [II-100], at DP receptor [1] (setting [3]), the IC50 amounted to 2400 nM. Besides, at DP receptor [2], the affinity corresponds to a Ki of 12800 nM.

`CC(C)Oc1ccc(S(=O)(=O)N2CCN(c3ccc(C(=O)Nc4nc5ccccc5[nH]4)c(OCC(=O)O)c3)CC2)cc1` [II-101]: the IC50 at DP receptor [1] (setting [3]) amounted to 210 nM. The same compound gave a Ki on DP receptor [2] of 22000 nM.

In the case of `CC(C)Oc1ccc(S(=O)(=O)N2CCN(c3ccc(C(=O)NCC4CC4)c(OCC(=O)O)c3)CC2)cc1` [II-105], the IC50 on DP receptor [1] (setting [3]) was determined as 1500 nM. At DP receptor [2], this compound came in with an inhibition constant Ki of 16000 nM.

Take `CC(C)Oc1ccc(S(=O)(=O)N2CCN(c3ccc(C(=O)NCc4ccco4)c(OCC(=O)O)c3)CC2)cc1` [II-106]: the IC50 on DP receptor [1] (setting [3]) was 1600 nM. The same compound yielded a Ki at DP receptor [2] of 19000 nM.

With `CC(C)Oc1ccc(S(=O)(=O)N2CCN(c3ccc(C(=O)Nc4nccs4)c(OCC(=O)O)c3)CC2)cc1` [II-108], the IC50 on DP receptor [1] (setting [3]) amounted to 130 nM. Besides, the affinity at DP receptor [2], expressed as Ki, was 13000 nM.

Consider `CC(C)Oc1ccc(S(=O)(=O)N2CCN(c3ccc(C(=O)Nc4nncs4)c(OCC(=O)O)c3)CC2)cc1` [II-110], for which the IC50 at DP receptor [1] (setting [3]) worked out at 360 nM. On DP receptor [2], this compound came in with a Ki of 9800 nM.

`CC(C)Oc1ccc(S(=O)(=O)N2CCN(c3ccc(C(=O)Nc4ccn(C)n4)c(OCC(=O)O)c3)CC2)cc1` [II-111]: at DP receptor [1] (setting [3]), the IC50 was 700 nM. The compound further came in with a Ki on DP receptor [2] of 36000 nM.

For `CC(C)Oc1ccc(S(=O)(=O)N2CCN(c3ccc(C(=O)Nc4cc(C5CC5)n[nH]4)c(OCC(=O)O)c3)CC2)cc1` [II-112], the IC50 at DP receptor [1] (setting [3]) worked out at 120 nM. The same compound returned a Ki on DP receptor [2] of 9300 nM.

For the compound `CC(C)Oc1ccc(S(=O)(=O)N2CCN(c3ccc4ncn(CC(=O)O)c4c3)CC2)cc1` [II-134], the IC50 on DP receptor [1] (setting [3]) came out at 2700 nM. The same compound had a Ki on DP receptor [2] of 8500 nM.

Regarding `CC(C)Oc1ccc(S(=O)(=O)N2CCN(c3ccc([N+](=O)[O-])c(NCC(=O)O)c3)CC2)cc1` [II-135], the IC50 at DP receptor [1] (setting [3]) amounted to 130 nM. Further, the affinity on DP receptor [2] corresponds to a Ki of 490 nM.
